The values below come from patent US6180664A (priority 1996, dated 2001).

The subject of assay [1] is isolated rabbit aortic rings. Kind of assay: tissue or blood.
Assay [2] deals with blood. Conditions: cited from earlier work.

Each structure is given as a SMILES string.

In the case of `CCOC(=O)C(CO[N+](=O)[O-])(CO[N+](=O)[O-])C(=O)OCC` [Bis-MA diethyl ester, Diethyl 2,2-bis(nitryloxymethyl)malonate], the EC50 in assay [1] (Oryctolagus cuniculus, read-out: pD2 value (converted)) was 251 nM. With `O=[N+]([O-])OCC(CO)(CO)CO` [PEMN, pentaerythrityl mononitrate], the pD2 value in assay [1] came to 5. As to `CCCCCCCCCCCCCCCCOCC(COP(=O)([O-])OCC[N+](C)(C)C)OC(C)=O` (stereo not shown) [platelet activation factor], in assay [2], the “concentration inducing platelet aggregation” value is reported as 0.1 nM and the concentration inducing vasodilation is reported as 0.1 nM.
